# Assay results taken from BindingDB's records for doi:10.1111/cbdd.12575 (Universidade De Lisboa, 2015).
# Biological target: T1, Nitric oxide synthase, inducible (Mus musculus, UniProt P29477)
# T1 sequence (P29477 whole entry): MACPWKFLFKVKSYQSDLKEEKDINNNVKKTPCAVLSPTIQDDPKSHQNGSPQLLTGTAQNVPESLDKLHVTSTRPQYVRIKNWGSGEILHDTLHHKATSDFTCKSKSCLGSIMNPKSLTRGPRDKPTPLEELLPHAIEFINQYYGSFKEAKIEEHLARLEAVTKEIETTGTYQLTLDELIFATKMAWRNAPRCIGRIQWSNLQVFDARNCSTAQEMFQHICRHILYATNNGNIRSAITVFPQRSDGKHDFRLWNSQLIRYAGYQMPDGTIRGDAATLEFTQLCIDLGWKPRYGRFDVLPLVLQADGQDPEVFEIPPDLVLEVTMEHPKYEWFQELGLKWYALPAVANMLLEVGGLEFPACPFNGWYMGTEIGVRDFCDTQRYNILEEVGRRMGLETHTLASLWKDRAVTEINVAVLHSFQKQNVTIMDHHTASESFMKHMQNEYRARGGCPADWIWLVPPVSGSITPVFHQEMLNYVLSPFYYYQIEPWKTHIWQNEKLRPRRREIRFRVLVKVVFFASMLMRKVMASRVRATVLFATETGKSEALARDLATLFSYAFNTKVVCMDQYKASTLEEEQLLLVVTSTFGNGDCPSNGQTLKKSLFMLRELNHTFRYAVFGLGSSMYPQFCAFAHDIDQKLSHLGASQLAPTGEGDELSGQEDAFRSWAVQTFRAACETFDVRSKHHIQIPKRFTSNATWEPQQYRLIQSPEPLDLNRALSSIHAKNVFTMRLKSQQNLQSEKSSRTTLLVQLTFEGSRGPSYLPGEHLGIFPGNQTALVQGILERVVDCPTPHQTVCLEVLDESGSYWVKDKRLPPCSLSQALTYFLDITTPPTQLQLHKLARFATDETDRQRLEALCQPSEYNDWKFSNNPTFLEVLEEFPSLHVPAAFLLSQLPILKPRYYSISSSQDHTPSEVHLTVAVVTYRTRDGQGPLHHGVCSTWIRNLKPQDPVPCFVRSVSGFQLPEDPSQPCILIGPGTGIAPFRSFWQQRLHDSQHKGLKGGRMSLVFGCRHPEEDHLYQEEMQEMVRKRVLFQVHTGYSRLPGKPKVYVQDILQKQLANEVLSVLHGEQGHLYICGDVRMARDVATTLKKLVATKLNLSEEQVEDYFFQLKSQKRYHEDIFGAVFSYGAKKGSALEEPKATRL
# Assay: iNOS Activity Assay
# Protocol: The iNOS activity assay was based on the method of hemoglobin assay previously described with slight modifications. The activity of the enzyme was determined spectrophotometrically by monitoring the NO-mediated conversion of oxyhemoglobin to methemoglobin at 401 and 421 nm.
row,Compound,Ki
1,"N=C(NCCCC12C[NH][Re]([CH]=O)([CH]=O)([CH]=O)([NH]1)[O]C2=O)N[N+](=O)[O-] (stereo not given) [1,1,1-triformyl-4-(3-{[iminiumyl(nitroamino)methyl]amino}propyl)-3-oxo-2-oxa-6,7-diaza-1-rhenabicyclo[2.2.1]heptane-6,7-diium (Re4)]",241 µM
2,N=C(NCCCC(N)(CN)C(=O)O)N[N+](=O)[O-] (stereo not given) [2-Amino-2-(aminomethyl)-5-(3-nitroguanidino)pentanoic acid (L4)],29.4 µM
3,NCC(N)(CCCC(=O)NC(CCCNC(N)=N[N+](=O)[O-])C(=O)O)C(=O)O (stereo not given) [2-Amino-2-(aminomethyl)-6-(1-carboxy-4-(2-nitroguanidino)butylamino)-6-oxohexanoic acid (L5)],6.2 µM
4,NCC(N)(CCCCCCC(=O)NC(CCCNC(N)=N[N+](=O)[O-])C(=O)O)C(=O)O (stereo not given) [2-Amino-2-(aminomethyl)-9-(1-carboxy-4-(2-nitroguanidino)butylamino)-9-oxononanoic acid (L6)],760 µM
5,"N=C(NCCCC(NC(=O)CCCC12C[NH][Re]([CH]=O)([CH]=O)([CH]=O)([NH]1)[O]C2=O)C(=O)O)N[N+](=O)[O-] (stereo not given) [4-{3-[(1-carboxylato-4-{[iminiumyl(nitroamino)methyl]amino}butyl)carbamoyl]propyl}-1,1,1-triformyl-3-oxo-2-oxa-6,7-diaza-1-rhenabicyclo[2.2.1]heptane-6,7-diium (Re5)]",57.2 µM
